As usually defined, the Ki is a measure of affinity in units of concentration, obtained from inhibition or displacement.

SMILES strings stand for the structures. Like-named read-outs stand apart in the source and are kept apart here.

For assay [1], the target named is α1β1γδ subtype of nicotinic acetylcholine receptors (Rattus norvegicus, UniProt P18916+P25108+P25110). The assay can be described thus: biochemical. In kind it is binding. To be noted: for Ki: read-out: Affinities for receptors Ki α1β1γδ, rat muscle extract, [3H]-α-Bgt 1 nM. An excerpt:
(§1) The methods for evaluating the binding capabilities of the compounds at nicotinic acetylcholine receptors are different by subtypes of receptors. The binding capabilities of the compounds at α4β2 nicotinic acetylcholine receptors are examined using rat brain membrane obtained from whole homogenized brain, and determining the inhibiting rate of the compounds against [^3H]-cytisine binding to said brain membrane. Furthermore, the binding capabilities of the compounds at α1β1γδ nicotinic acetylcholine receptors are examined using homogenized rat muscle, and determining the inhibiting rate of the compounds against [^3H]-α-bungarotoxin binding to said muscle homogenate.
The affinity of the compounds of the present invention to α1β1γδ subtype of nicotinic acetylcholine receptors was measured by the following method, which was modified method described by Garcha H. S., Thomas P., Spivak C. E., Wonnacott S. & Stolerman I. P., Psychropharmacology, 110, 347-354 (1993).
(1) Preparation of Rat Skeletal Muscles Containing α1β1γδ Subtype of Nicotinic Acetylcholine Receptors
The substantially same animals described in the Biological Experiment 1 were used.
The isolation of α1β1γδ subtype of nicotinic acetylcholine receptors was performed as follow. That is, rat posterior skeletal muscles were isolated just after sacrificed by decapitation, washed with ice-cooled saline solution and then frozen at −80° C. with liquid nitrogen and stored till using. After thawing the frozen muscles, tissue was homogenized (40% w/v) with buffer solution [2.5 mM of sodium phosphate buffer (pH:7.2), 90 mM of NaCl, 2 mM of KCl, 1 mM of EDTA, 2 mM of benzamidine, 0.1 mM of benzethonium chloride, 0.1 mM of PMSF, 0.01% of sodium azide] in Waring blender (Waring blender 34BL97; WARING PRODUCTS DIVISION DYNAMICS CORPORATION OF AMERICA) for 60 seconds. The homogenate were centrifuged under 20,000×G for 60 minutes at 4° C. The supernatant was separated and the resulting pellet was added to the same buffer (1.5 ml/g wet weight), and homogenized under the same conditions. Triton X100 (2% w/v) was added and the mixture was stirred for 3 hours at 4° C. The centrifugation at 100,000×G for 60 minutes at 4° C. yielded the rat muscle extract as supernatant. This was stored at 4° C. for up to 4 weeks, and used for binding assays at receptors.
(2) Experiments of α1β1γδ Subtype of Nicotinic Acetylcholine Receptors Binding
Receptors binding experiments were performed as follow. That is, the extract of rat muscle containing 600-900 μg of protein was added to test tubes containing test compounds and incubated for 15 minutes at 37° C. Then, to this mixture was added 1 nM of [^3H]-α-bungarotoxin (α-Bgt) and further incubated for 2 hours. The samples were isolated by vacuum filtration onto Whatman GF/B filters, which were prerinsed with 0.5% polyethylenimine just prior to sample filtration, using Brandel multi manifold cell harvester. The filters were rapidly rinsed with washing solution (10 mM of KH2PO4, 150 mM of NaCl, pH 7.2, room temperature) (5×1 ml). The filters were counted in 3 ml of clearsol I (Nacalai Tesque Inc.). The determination of nonspecific binding was incubated in the presence of 1 μM α-Bgt. The solutions containing α-Bgt (labeled/non-labeled) were prepared by using buffer solution containing 0.25% of BSA. In the receptor binding experiments, said buffer solution was added for adjusting the final concentration of BSA to be 0.05%.
The analyses of the experimental results were conducted by the same way as described in the Biological Experiment 1.

In assay [2] the target is T1, α4β2 subtype of nicotinic acetylcholine receptors (Rattus norvegicus, UniProt P09483+P12390).
T1 construct: rat brain membrane obtained from whole homogenized brain; from tissue; host or cells: whole brain of Fischer-344 male rats, membrane fraction
T1 sequence (P09483 31-630): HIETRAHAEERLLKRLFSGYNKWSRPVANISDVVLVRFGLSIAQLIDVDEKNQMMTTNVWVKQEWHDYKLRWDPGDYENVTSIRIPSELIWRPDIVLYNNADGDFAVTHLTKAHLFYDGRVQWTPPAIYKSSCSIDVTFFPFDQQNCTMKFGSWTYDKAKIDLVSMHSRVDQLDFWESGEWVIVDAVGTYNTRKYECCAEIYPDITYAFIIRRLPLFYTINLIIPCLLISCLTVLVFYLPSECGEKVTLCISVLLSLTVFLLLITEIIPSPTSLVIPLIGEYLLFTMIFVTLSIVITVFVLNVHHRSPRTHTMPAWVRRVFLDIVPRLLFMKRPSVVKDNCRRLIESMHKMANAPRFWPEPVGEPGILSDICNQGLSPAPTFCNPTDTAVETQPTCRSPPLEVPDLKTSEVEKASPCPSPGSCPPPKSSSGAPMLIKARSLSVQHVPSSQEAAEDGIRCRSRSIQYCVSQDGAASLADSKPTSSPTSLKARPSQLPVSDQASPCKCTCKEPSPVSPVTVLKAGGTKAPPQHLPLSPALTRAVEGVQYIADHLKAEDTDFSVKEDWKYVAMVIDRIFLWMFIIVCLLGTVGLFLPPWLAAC
T1 sequence (P12390 25-500): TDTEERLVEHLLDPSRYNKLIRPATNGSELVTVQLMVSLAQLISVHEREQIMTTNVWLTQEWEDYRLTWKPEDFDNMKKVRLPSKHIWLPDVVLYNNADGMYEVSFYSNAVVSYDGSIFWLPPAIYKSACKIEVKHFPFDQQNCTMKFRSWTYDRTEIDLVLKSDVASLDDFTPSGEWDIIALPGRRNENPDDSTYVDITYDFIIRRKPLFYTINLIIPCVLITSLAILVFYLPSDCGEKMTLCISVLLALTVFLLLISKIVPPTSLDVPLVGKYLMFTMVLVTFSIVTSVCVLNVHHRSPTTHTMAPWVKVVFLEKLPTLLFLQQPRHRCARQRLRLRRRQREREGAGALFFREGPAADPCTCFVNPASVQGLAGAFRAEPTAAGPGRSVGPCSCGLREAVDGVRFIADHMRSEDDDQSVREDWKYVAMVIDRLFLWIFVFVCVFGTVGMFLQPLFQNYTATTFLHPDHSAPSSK
Kind of assay: Binding assay at α4β2 subtype of nicotinic acetylcholine receptors ([3H]-cytisine, rat brain membrane).
From the text: as §1
The affinity of the compounds of the present invention to α4β2 subtype of nicotinic acetylcholine receptors was performed by the following method, which was modified method described by Pabreza L. A., Dhawan S. & Kellar K. J., Mol. Pharm., 39, 9-12 (1990), and by Anderson D. J. & Arneric S. P., Eur. J. Pharm., 253, 261-267 (1994).
(1) Preparation of Rat Brain Membrane Containing α4β2 Subtype of Nicotinic Acetylcholine Receptors
Fischer-344 strain male rats (body weight: 200-240 g; 9 weeks old) obtained from Charles River Japan were used. Rats were housed in the breeding cage controlled of the room temperature at 23±1° C., and the humidity of 55±5% for 1 to 4 weeks. Rats (3 to 4 rats per a cage) were housed with lights on for 12 hours daily (from 7:00 to 19:00), and allowed free access to food and water.
Preparation of rat brain membrane containing α4β2 subtype of nicotinic acetylcholine receptors was performed as follow. That is, rat brains were isolated just after sacrificed by decapitation, washed with ice-cooled saline solution and then frozen at −80° C. with liquid nitrogen and stored till using. After thawing the frozen brain, the brain was homogenized in 10 volumes of ice-cooled buffer solution (50 mM of Tris-HCl, 120 mM of NaCl, 5 mM of KCl, 1 mM of MgCl2, 2 mM of CaCl2; pH 7.4; 4° C.) using homogenizer (HG30, Hitachi Kohki Ltd.) for 30 seconds, and the homogenate were centrifuged under 1,000×G for 10 minutes at 4° C. The resulting supernatant was separated and the pellet was homogenized again with half volume of aforementioned prior buffer solution and centrifuged under the same conditions. Combined supernatant was further centrifuged under 40,000×G for 20 minutes at 4° C. The pellet was suspended in buffer solution and used for binding assays at receptors.
(2) Experiments of α4β2 Subtype of Nicotinic Acetylcholine Receptors Binding
Suspensions of membrane pellets containing 400-600 μg of protein were added to test tubes containing test compounds and [^3H]-cytisine (2 nM) in a final volume of 200 μl and incubated for 75 minutes in ice-cooled bath. The samples were isolated by vacuum filtration onto Whatman GF/B filters, which were prerinsed with 0.5% polyethylenimine just prior to sample filtration, using Brandel multi manifold cell harvester. The filters were rapidly washed with buffer solution (3×1 ml). The filters were counted in 3 ml of clearsol I (Nacalai Tesque Inc.).
The analyses of the experimental results were conducted by using the Accufit Competition Program (Beckman Ltd.).

The mark [3] stands for this setting: rat brain membrane, [3H]-cytisine 2 nM, read-out: Affinities for receptors Ki α4β2.
The mark [4] stands for this setting: read-out: control % of [3H]-α-Bgt binding.

α1β1γδ subtype of nicotinic acetylcholine receptors, sequence (P25109 24-501): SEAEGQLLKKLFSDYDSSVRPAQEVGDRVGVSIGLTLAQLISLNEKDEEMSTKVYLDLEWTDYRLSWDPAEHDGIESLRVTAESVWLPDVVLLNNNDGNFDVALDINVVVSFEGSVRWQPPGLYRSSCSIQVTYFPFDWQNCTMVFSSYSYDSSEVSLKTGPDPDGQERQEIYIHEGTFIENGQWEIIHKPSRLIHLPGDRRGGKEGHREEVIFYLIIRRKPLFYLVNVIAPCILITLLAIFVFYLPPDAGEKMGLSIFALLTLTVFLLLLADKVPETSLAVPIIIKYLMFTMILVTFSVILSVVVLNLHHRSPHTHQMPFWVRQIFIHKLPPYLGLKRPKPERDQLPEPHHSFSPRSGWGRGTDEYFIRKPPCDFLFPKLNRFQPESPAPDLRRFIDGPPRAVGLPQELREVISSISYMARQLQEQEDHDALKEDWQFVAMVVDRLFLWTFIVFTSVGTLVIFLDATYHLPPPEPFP
α1β1γδ subtype of nicotinic acetylcholine receptors, sequence (P25110 22-517): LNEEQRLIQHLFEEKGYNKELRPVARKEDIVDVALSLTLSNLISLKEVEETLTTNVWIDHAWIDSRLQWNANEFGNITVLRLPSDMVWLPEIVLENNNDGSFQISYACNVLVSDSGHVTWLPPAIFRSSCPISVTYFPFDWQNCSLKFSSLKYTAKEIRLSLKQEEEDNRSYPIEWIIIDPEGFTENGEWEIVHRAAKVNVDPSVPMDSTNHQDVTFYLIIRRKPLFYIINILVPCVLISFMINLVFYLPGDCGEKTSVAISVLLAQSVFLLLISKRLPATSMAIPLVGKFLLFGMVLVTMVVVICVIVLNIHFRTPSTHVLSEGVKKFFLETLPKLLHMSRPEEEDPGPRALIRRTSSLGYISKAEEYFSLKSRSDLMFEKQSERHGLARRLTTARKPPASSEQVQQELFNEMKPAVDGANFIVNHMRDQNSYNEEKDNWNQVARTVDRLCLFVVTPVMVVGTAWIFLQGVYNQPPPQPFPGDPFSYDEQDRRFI
α1β1γδ subtype of nicotinic acetylcholine receptors, sequence (P25108 21-457): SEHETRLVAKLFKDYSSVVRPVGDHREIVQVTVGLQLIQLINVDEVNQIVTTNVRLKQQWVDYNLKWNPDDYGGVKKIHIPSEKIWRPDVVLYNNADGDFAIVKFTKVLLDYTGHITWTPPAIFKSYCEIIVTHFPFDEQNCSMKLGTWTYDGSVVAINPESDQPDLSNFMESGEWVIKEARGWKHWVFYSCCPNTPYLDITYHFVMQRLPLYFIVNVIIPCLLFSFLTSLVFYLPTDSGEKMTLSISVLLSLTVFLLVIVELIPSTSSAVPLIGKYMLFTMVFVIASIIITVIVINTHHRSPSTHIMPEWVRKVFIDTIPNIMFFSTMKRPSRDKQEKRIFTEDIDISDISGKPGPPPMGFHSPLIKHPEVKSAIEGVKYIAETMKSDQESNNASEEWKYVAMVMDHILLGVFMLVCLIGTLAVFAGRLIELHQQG
α1β1γδ subtype of nicotinic acetylcholine receptors, sequence (P18916 23-519): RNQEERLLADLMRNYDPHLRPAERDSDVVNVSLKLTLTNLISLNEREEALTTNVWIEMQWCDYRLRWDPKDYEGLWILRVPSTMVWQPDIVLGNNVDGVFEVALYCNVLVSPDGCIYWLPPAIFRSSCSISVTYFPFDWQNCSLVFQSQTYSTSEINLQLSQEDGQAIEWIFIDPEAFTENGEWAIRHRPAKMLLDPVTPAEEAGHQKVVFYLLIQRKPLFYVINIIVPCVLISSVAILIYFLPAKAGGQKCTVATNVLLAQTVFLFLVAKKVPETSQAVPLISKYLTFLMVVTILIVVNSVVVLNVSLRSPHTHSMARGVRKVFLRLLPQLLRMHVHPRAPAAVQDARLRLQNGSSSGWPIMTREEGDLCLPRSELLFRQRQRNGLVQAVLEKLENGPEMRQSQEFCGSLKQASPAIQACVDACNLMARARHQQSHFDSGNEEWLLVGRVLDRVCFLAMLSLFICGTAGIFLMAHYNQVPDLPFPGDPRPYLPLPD

For the compound `Cc1ccc(CCn2ccnc2N)cn1` [Compound 11, 2-amino-1-[2-(6-methyl-3-pyridyl)ethyl]imidazole], the Ki in assay [1] amounted to 1150 µM; in assay [2] (setting [3]), 0.021 µM.
`N=C1NCCCN1CCc1ccc(Cl)nc1` [Compound 12, 1-[2-(6-chloro-3-pyridyl)ethyl]-2-imino-1,2,3,4,5,6-hexahydro-pyrimidine]: the Ki in assay [1] was determined as 12 µM; in assay [2], 0.0014 µM.
In the same order, the values of `Nc1nccn1CCc1cnc(Cl)c(Cl)c1` [Compound 13, 2-amino-1-[2-(5,6-dichloro-3-pyridyl)ethyl]-imidazole] are 40 µM and 0.0031 µM.
In the case of `Nc1nccn1CCc1cccnc1` [Compound 14, 2-amino-1-[2-(3-pyridyl)ethyl]imidazole], the Ki was 223 µM in assay [1] and 0.0035 µM in assay [2] (setting [3]).
On to `Nc1nccn1CCc1cnc(Cl)s1` [Compound 23, 2-amino-1-[2-(2-chloro-5-thiazolyl)ethyl]imidazole], for which the Ki in assay [1] amounted to 44 µM; in assay [2], 0.0085 µM.
Regarding `Nc1nccn1CCc1cncc(Br)c1` [Compound 25, 2-amino-1-[2-(5-bromo-3-pyridyl)ethyl]imidazole], the values for the Ki in assay [1] and in assay [2] (setting [3]) were 36 µM and 0.002 µM, respectively.
In the same order, the values of `Cc1cncc(CCn2ccnc2N)c1` [Compound 27, 2-amino-1-[2-(5-methyl-3-pyridyl)ethyl]imidazole] are 339 µM and 0.021 µM.
Turning to `Nc1nccn1CCc1cncnc1` [Compound 29, 2-amino-1-[2-(5-pyrimidyl)ethyl]imidazole], the values for the inhibition constant Ki in assay [1] and in assay [2] were 447 µM and 0.006 µM, respectively.
For `Nc1nccn1CCc1cccnn1` [Compound 30, 2-amino-1-[2-(3-pyridazinyl)ethyl]imidazole], the inhibition constant Ki in assay [1] was 80 µM; in assay [2] (setting [3]), 0.04 µM.
`Nc1nccn1CCc1cnccn1` [Compound 31, 2-amino-1-[2-(2-pyrazinyl)ethyl]imidazole]: in assay [1] (setting [4]), the remaining activity at 100 µM was found to be 110% and the remaining activity at 1000 µM turned out to be 53%. Besides, the remaining activity at 1 µM in assay [2] (1 μM of test compound, rat brain membrane, read-out: control % of [3H]-cytisine binding) was 75%. Also, the remaining activity at 10 µM in assay [2] (10 μM of test compound, rat brain membrane, read-out: control % of [3H]-cytisine binding) was determined as 22%.
With `Nc1nccn1CCc1ccnnc1` [Compound 34, 2-amino-1-[2-(4-pyridazinyl)ethyl]imidazole], the Ki in assay [1] was determined as 1270 µM; in assay [2] (setting [3]), 0.068 µM.
